Consider five molecules from article PMC5641092 (Oncotarget, 2017).

For data set [1], the system named is normal human dermal fibroblasts NHDF. Briefly: MTS cell viability assay, NHDF. It is filed as cell-based. As to conditions: 24 h, at least three experiments. The source says:
The human malignant melanoma cell line A375 was purchased from ATCC (American Type Culture Collection, Manassas, Virginia, US) and cultured in Dulbecco's Modified Eagle Medium with GlutaMAX™ (DMEM, Gibco®, Thermo Fisher Scientific, USA) with addition of 10% FBS (Gibco®). Melanoma cell lines from primary (SBcl-2) and metastatic (WM164) lesions (kindly provided by Dr. Meenhard Herlyn, the Wistar Institute, Philadelphia, PA) and newly established primary cells MUG-Mel1 (manuscript Rinner et al., in preparation) were maintained in RPMI 1640 medium with GlutaMAX™ (Gibco®, Thermo Fisher Scientific, USA) supplemented with 2% FBS (fetal bovine serum; Gibco®). Normal human dermal fibroblasts NHDF, used as healthy control cells, purchased from PromoCell GmbH were cultured in fibroblast growth medium 2 (PromoCell GmbH). All cells were kept in a 5% CO2 atmosphere at 37°C. […]
MTS viability assay-spectroscopy—Cell proliferation was measured by using CellTiter 96® Aqueous One Solution Cell Proliferation assay (Promega). […] The quantity of the formazan product as measured by the amount of 490 nm absorbance is directly proportional to the number of living cells in culture. Data are calculated as a percentage of the control (untreated) samples and represent the average of three wells in one experiment which was repeated three times per cell line.
In general terms: Tetrazolium assays rely on reduction of a dye to a coloured formazan, in cell work by metabolically active cells.

Data set [2] deals with human melanoma A375 xenografts. Briefly: Mouse xenografts of human melanoma A375, intratumoral peptide treatment. It counts as in vivo, FOXN1 mice. The conditions noted are these: day 1 and day 3, after first and second dose of 0.33 mg. As to the method:
20 FOXN1 mice (Charles River Laboratories, Sulzfeld, Germany) were xenotransplanted with melanoma cells A375 subcutaneously in the right flank. The tumor was grown to a maximum length and width of 3 mm before peptide treatment was started (day 0). 9 mice were treated with peptide dissolved in buffer PBS (P), 5 mice were treated with pure buffer (C+), 5 mice were untreated (C-). Treatment occurred at days 0, 1, 6, 7, 8, 11 and 12 in 7 single doses by injection into the tumor. The total dose per mouse was 1.67 mg. The single doses applied at day 0 and 1 contained 0.33 mg peptide and the residual doses contained 0.20 mg. The tumor sizes were measured with manual calipers during the treatment time span. […]
The tumor sections of peptide treated and untreated mice were evaluated for the following: tumor cell types (spindle, epithelioid, or mixed), tumor size, present/ absent necrosis or fibrosis. […] We performed Ki67 staining (Ki-67 rabbit primary antibody, 30-9; ready to use with Ventana iView DAB detection kit; Pretreatment: CC1mild; All Ventana Medical Systems, Inc, Tucson, Arizona).
All values were presented as the mean ± SEM. In vivo data were analyzed by using the unpaired student's t test, p-values less than 0.001 were considered statistically significant.
A general note: A xenograft is tissue or cells of one species grown in another, often human tumour cells in immunodeficient mice.

The target in data set [3] is T1, bovine serum albumin (BSA) (Bos taurus, UniProt P02769).
T1 construct: purchased Sigma-Aldrich, Deisenhofen, Germany
T1 sequence (P02769 25-607): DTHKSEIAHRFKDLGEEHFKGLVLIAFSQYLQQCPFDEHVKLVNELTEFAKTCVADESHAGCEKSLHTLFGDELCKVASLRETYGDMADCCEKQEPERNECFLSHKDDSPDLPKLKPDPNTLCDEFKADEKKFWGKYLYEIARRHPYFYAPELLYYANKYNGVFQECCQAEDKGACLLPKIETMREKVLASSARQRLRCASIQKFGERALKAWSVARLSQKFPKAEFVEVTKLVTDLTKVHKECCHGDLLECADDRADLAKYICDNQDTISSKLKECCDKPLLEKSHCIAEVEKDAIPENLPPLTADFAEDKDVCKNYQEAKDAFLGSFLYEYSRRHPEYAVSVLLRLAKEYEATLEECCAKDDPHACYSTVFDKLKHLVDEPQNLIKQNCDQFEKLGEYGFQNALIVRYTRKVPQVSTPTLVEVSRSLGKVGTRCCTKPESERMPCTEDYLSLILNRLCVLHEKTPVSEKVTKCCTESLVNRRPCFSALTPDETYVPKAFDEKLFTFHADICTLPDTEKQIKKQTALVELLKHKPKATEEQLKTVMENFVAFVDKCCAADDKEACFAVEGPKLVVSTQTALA
Briefly: Peptide stability in presence of BSA (SDS-PAGE). It counts as in vitro ADME. As to conditions: BSA 1:1 weight ratio, 37°C, 1, 6 and 7 days. The protocol:
(§1) Peptide stability was tested in presence of bovine serum albumin (BSA, Sigma-Aldrich, Deisenhofen, Germany), fetal bovine serum (FBS, Gibco®), buffer pH 2 (30 mM citric acid/HCl, 60 mM NaCl), pH 10 (10 mM Tris/NaOH), and pepsin from porcine gastric mucosa (Sigma-Aldrich, Deisenhofen, Germany) in buffer pH 2. Therefore peptide samples were incubated in presence of 1:1 weight ratios (10:1 in presence of pepsin) with the mentioned components or in presence of buffer (pH 2 or 10) for 1 day, 6 days and 7 days at 37°C. After the given time points aliquots were taken and diluted with electrophoresis loading buffer (2.5% SDS) heated for 5 minutes at 95°C and analyzed by SDS-gel electrophoreses (BioRad, Mini-PROTEAN Tetra System). As standard the Ultra-low Range Molecular Weight Marker M3546 (Sigma-Aldrich, Deisenhofen, Germany) was used. For analysis of binding to BSA after 7 days respective samples were taken and loaded on Amicon Ultra-0.5 ml Centrifugal Filters (Ultracel-10K) (Merck Millipore, Tullagreen, IRL). After centrifugation (14.000g, 30 minutes, 4°C) the filtrate was analyzed for amount of non-BSA-bound peptide by measurement of UV-absorbance of tryptophan at 280 nm. The filtrate (free) peptide amount was corrected with the peptide loss during the filtration process by a control experiment with defined peptide amount.

Data set [4] in a line: Complete blood count of xenografted mice. As to conditions: 7 mice. It counts as in vivo, FOXN1 mice. As to the method:
20 FOXN1 mice (Charles River Laboratories, Sulzfeld, Germany) were xenotransplanted with melanoma cells A375 subcutaneously in the right flank. The tumor was grown to a maximum length and width of 3 mm before peptide treatment was started (day 0). […] Treatment occurred at days 0, 1, 6, 7, 8, 11 and 12 in 7 single doses by injection into the tumor. The total dose per mouse was 1.67 mg. The single doses applied at day 0 and 1 contained 0.33 mg peptide and the residual doses contained 0.20 mg. The tumor sizes were measured with manual calipers during the treatment time span. At day 15 the mice were sacrificed and the tumors were isolated and examined together with the organs of the mice after paraffin embedment and staining of four-micron sections with hematoxylin and eosin. All animal work was done in accordance with the protocol approved by the institutional animal care and use committee at the Austrian Federal Ministry for Science and Research (BMWF) (vote 66.010/0160-II/3b/2012).

The target in data set [5] is T2, pepsin from porcine gastric mucosa (Sus scrofa, UniProt P00791).
T2 construct: pepsin from porcine gastric mucosa (Sigma-Aldrich, Deisenhofen, Germany); purchased Sigma-Aldrich, Deisenhofen, Germany; host or cells: porcine gastric mucosa
T2 sequence (P00791 60-385): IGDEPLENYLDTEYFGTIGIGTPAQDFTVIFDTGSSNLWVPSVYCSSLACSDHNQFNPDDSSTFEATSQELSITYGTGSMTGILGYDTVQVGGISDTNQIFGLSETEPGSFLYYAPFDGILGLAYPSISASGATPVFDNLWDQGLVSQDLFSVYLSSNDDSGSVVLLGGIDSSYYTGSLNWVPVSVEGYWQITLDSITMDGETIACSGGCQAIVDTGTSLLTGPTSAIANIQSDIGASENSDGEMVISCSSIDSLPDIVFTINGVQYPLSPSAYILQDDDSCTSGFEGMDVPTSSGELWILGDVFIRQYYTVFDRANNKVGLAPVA
Briefly: Peptide stability in presence of pepsin at pH 2 (SDS-PAGE). It is filed as in vitro ADME. The conditions noted are these: pepsin in buffer pH 2, peptide:pepsin 10:1 weight ratio, 37°C, 1, 2 and 7 days. The protocol: as §1, with “Therefore peptide samples were incubated in presence of 1:1 weight ratios (10:1 in presence of pepsin) with the mentioned components or in presence of buffer (pH 2 or 10) for 1 day, 6 days and 7 days at 37°C.” left out

The nature of data set [6]: Peptide stability in presence of fetal bovine serum (SDS-PAGE). It counts as in vitro ADME. As to conditions: FBS 1:1 weight ratio, 37°C. The protocol:
as §1, with “Therefore peptide samples were incubated in presence of 1:1 weight ratios (10:1 in presence of pepsin) with the mentioned components or in presence of buffer (pH 2 or 10) for 1 day, 6 days and 7 days at 37°C.” left out

For data set [7], the target named is T1, bovine serum albumin (BSA). Briefly: Binding to BSA (centrifugal filtration, UV 280 nm). As to conditions: after 7 days of incubation at 37°C, Amicon Ultracel-10K filtration, corrected for filtration loss. The protocol: as §1
The nature of data set [8]: Side effects after subcutaneous injection of peptide into the flank. It counts as in vivo, mice. The protocol:
To test further potential side effects of the peptide in vivo, 3 mice were injected subcutaneously into the flank with 9 doses of peptide to a total amount of 0.68 mg per mouse over 3 weeks. Then the skin at injection site, liver, kidney, spleen, and weight were checked for abnormal changes (Supplementary Figure 1, liver and kidney).

A further data set has as its system malignant melanoma. As to conditions: cited from earlier work; for response rates: malignant melanoma patients, ref [26], [27]. The source says: Though, the specific target PS has been described to be exposed by numerous cancer types, we decided to focus on treatment of a cancer type with poor prognosis and limited therapy options, like malignant melanoma. […] In 1960s the risk to develop malignant melanoma was 1:600, whereas today it is 1:75 to 1:100 [23]. Further it exerts high tendency to metastasize and is mainly chemo-resistant. Thus the long-standing applied treatment with the methylating agent dacarbazine or its oral analogue temozolomide only yie ...

[9] abbreviates: 3 mice, 9 s.c. doses, total 0.68 mg per mouse over 3 weeks.
The mark [10] stands for this setting: vemurafenib compared to dacarbazine, ref [30].

Like-named read-outs stand apart in the source and are kept apart here. Residues, ends and D or L forms follow the SMILES beside them. A value given as a limit tells only on which side of the number the result lay.

For the molecule `CC[C@H](C)[C@H](NC(=O)[C@H](CCCNC(=N)N)NC(=O)[C@@H](NC(=O)[C@H](CCCNC(=N)N)NC(=O)[C@H](CCCNC(=N)N)NC(=O)[C@@H]1CCCN1C(=O)[C@H](CCCNC(=N)N)NC(=O)[C@H](CCCNC(=N)N)NC(=O)[C@@H](NC(=O)[C@H](CCCNC(=N)N)NC(=O)[C@@H](NC(=O)[C@H](CCCNC(=N)N)NC(=O)[C@H](Cc1c[nH]c2ccccc12)NC(=O)[C@@H]1CCCN1)[C@@H](C)CC)[C@@H](C)CC)[C@@H](C)CC)C(=O)N[C@@H](CCCNC(=N)N)C(=O)N[C@@H](Cc1c[nH]c2ccccc12)C(=O)N1CCC[C@H]1C(N)=O` [R-DIM-P-LF11-334] (H-PWRIRIRRPRRIRIRWP-NH2), the “LC50 MTS” value in data set [1] was over 90 µM. The “local reaction at tumor after intratumoral injection” value in data set [2] is listed as “in some cases a wound developed”. The “degradation of peptide by BSA” value in data set [3] is reported as “no degrading effect”. Further, in [4] (+P), the Bas is recorded as 0.68%, the EVB-CV is reported as 19.44%, the EVB-SD worked out at 35.95 fL and the MERY was determined as 0.34%. Further, in data set [4] (+P), the MTHR stood at 8.13%, the Medn worked out at 4.14 fL, the Mod was 3.05 fL and the “Other (leukocytes)” value came to 2.30%. Further, in [4] (+P), the TKT is 0.43%, the μERY was found to be 16.00% and the μTHR is reported as 16.54%. Further, the Mon in [4] (+P, normal range 1-5) is 4.46%. Besides, in data set [4] (+P, normal range 3-8), the MPV was 5.91 fL. This molecule also showed a TVB in data set [4] (+P, normal range 6-10) of 10.10. In [4] (+P, normal range 6-11), the “Erythrocytes ERY” value is reported as 8.53 10^6/μl. In data set [4] (+P, normal range 13-22), this molecule gave an MCH of 16.5 pg. In addition, in data set [4] (+P, normal range 14-18), the Hb was found to be 14.06 g/dL. In [4] (+P, normal range 24-40), this molecule had an MCHC of 32.85 g/dL. The molecule also had a Hct in data set [4] (+P, normal range 35-45) of 42.81%. For the same molecule, the MCV in data set [4] (+P, normal range 35-50) was determined as 50.18 fL. In addition, the Lym in data set [4] (+P, normal range 70-81, marked ↑) was 82.28%. In addition, in data set [4] (+P, normal range 100-600, marked ↑), the “Thrombocytes THR” value is listed as 705.00 10^3/μl. In data set [4] (+P, normal range <10), this molecule had an Eos of 1.33%. Also, in data set [4] (peptide treated xenograft mice (+P), normal range 4-10), the “Leukocytes LEU” value is given as 6.13 10^3/μl. The “cleavage in presence of pepsin” value in [5] is “no visible cleavage”. Moreover, in [6], the “incubation time in FBS before amount of peptide is reduced” value was “more than 1 day”, the “peptide remaining in FBS after 6 days” value is recorded as “no peptide was detectable” and the “period of stability / complete activity in presence of FBS (blood components)” value was determined as 24 h. The “fraction of peptide left in FBS after 2 days” value in data set [6] (data not shown) is “about 1/3”. The “binding of the peptide to BSA” value in [7] is reported as “approximately 75%”. Also, in [8] (setting [9]), the “inflammation after subcutaneous injection” value is “No inflammation occurred”; the “organs (skin at injection site, liver, kidney, spleen)” value is on record as “unsuspicious”; the weight gain result was “normal”. Besides, in data set [8] (s.c. treatment, 9 doses, Supplementary Figure 1), the “effect in liver and kidney (H&E sections)” value was “No effect”.

As to `CN(C)/N=N/c1[nH]cnc1C(N)=O` [dacarbazine], the response rates entry in the data set with malignant melanoma was “about 15%”. Further, the “percentage of 5 years survival, solely dacarbazine” value with malignant melanoma (ref [29]) is listed as 8%. Also, the median survival in the data set on malignant melanoma (setting [10]) is reported as 9.7 months.

For the molecule `Cn1nnc2c(C(N)=O)ncn2c1=O` [temozolomide], the response rates result in the data set on malignant melanoma is given as “about 15%”.

Consider `CCCS(=O)(=O)Nc1ccc(F)c(C(=O)c2c[nH]c3ncc(-c4ccc(Cl)cc4)cc23)c1F` [vemurafenib], for which, in the data set with malignant melanoma (setting [10]), the median survival is 13.6 months.

“ipilimumab: immunotherapy approved by the FDA in 2011, blocks the T-cell inhibition of CTLA-4”: the median survival with malignant melanoma (melanoma patients, ref [28]) is listed as 12.7 months. For the same molecule, in the data set on malignant melanoma (patients treated with ipilimumab in combination with dacarbazine, ref [29]), the “percentage of 5 years survival, in combination with dacarbazine” value is listed as 18%.
